Data reported in patent publication US11952364B2, “TRK inhibitors useful as anticancer drugs” (TYLIGAND BIOSCIENCE (SHANGHAI) LIMITED, priority 2018, dated 2024).
Where two headings read alike, the source gives them in different places. Blank lines part the entries; values can stand above or below the molecule they belong to.

System: Ba/F3 ETV6-NTRK3-G696C cells
Assay: Proliferation of Ba/F3 ETV6-NTRK3-G696C cells (CellTiter-Glo)
Assay type: cell-based, mouse
Details: Mus musculus, read-out: Ba/F3 ETV6-NTRK3-G696C, IC50
Description: Ba/F3 ETV6-NTRK3-G696C is a stable transgenic cell line constructed by KYinno Biotechnology Co., Ltd. on mouse primary B cell Ba/F3 wherein NTRK3 is highly expressed with a mutation of G at position […] to C and fused with ETV6 to form ETV6-NTRK3. • [Test method]: Promega's CellTiter-Glo® Luminescent Cell Viability Assay kit was used to evaluate the inhibitory activity of the compounds on the proliferation of Ba/F3 ETV6-NTRK3-G696C cells. • [Instrument]: Spectramax M3 multifunctional microplate reader from Molecular Devices. • [Test materials]: Ba/F3 ETV6-NTRK3-G696C cell line (constructed by KYinno Biotechnology Co., Ltd. (Beijing)), 96-well transparent flat-bottomed black-walled cell culture plate (Corning, cat #3603), RPMI-1640 media (GE, product number #SH30027.01), fetal bovine serum FBS (Thermo Fisher, cat #10099-141), CellTiter-Glo® Luminescent Cell Viability Assay kit (Promega, cat #G7572), PBS (Solarbio, cat #P1020), DMSO (Sigma, cat #D2650). • [Experimental procedure]: When resuscitating Ba/F3 ETV6-NTRK3-G696C cells, • the freezing tube was quickly shaken in a 37° C. water bath to melt within 1 minute. The thawed cell suspension was mixed uniformly with RPMI1640 medium containing 10% FBS, centrifuged at 1000 rpm for 5 minutes, and the supernatant discarded. 5 mL of complete medium (RPMI1640 medium with 10% FBS) was taken to resuspend the cell pellets, charged into a cell culture flask with a bottom area of 25 cm^2, and incubated in a cell incubator at 37° C., 95% humidity and 5% CO2. Cells were allowed to passage when the number of cells reached about 10^6 cells/mL. For cell passage, the old cell suspension was directly pipetted evenly, 1/5 of the cell suspension was kept, 4 mL of new complete medium was added, after pipetting evenly, the cell flask was placed in the cell incubator for further culturing. Cell plating was performed when the number of cells reached about 10^6 cells/mL again. For cell plating, 1/5 of the cell suspension was kept for further culturing as in the cell passage method, and the remaining 4/5 of the cell suspension was placed in a 15 mL centrifuge tube, detected for cell viability by Trypan blue exclusion method to ensure that cell viability was above 90%. A cell suspension with a density of 5.56×10^4 viable cells/mL was prepared with complete medium, and 90 μL of such cell suspension was added to a 96-well cell culture plate to obtain the cell density of 5000 viable cells/mL in the cell culture plate. A control group containing no cells, no compound and only complete medium (i.e. culture medium control) and a control group containing no compound but containing cells (i.e. cell control) were set. The cell plate was placed in a cell incubator overnight. The 10 mM compound stock solution in DMSO was first serially diluted with DMSO at a dilution factor of 3.16 times, to obtain 9 concentrations, and the 10th concentration was set as DMSO control without compound. Then, PBS was used to dilute the DMSO solutions of compounds of different concentrations, at a dilution factor of 100 times, so that the DMSO concentration in the compound solution of each concentration was 1%. Finally, 10 μL of each of the above solutions was added to the corresponding cell culture plate, so that the initial compound concentration was 10 μM, with the remaining concentrations being successively diluted at a dilution factor of 3.16 times, and the DMSO content in the cell culture plate was 0.1%. The cell plate was placed in a cell incubator and cultured for 72 hours. For endpoint detection, the CellTiter-Glo reagent was melted, and the cell plate was moved to room temperature to equilibrate for 30 minutes, added with 100 μL of CellTiter-Glo for each well, and shaken on an orbital shaker for 5 minutes to fully lyse the cells. […]

IC50 (BaF3, Table 7-1, separate test): 14 nM
Structure (SMILES): CCn1ncc2cc(Oc3ccc(NC(=O)c4ccc(C5CC5)n(-c5ccc(F)cc5)c4=O)cc3F)c(-c3cn[nH]c3)cc21 [Example 19, N-(3-fluoro-4-(1-ethyl-6-(1H-pyrazol-4-yl)-1H-indazol-5-yloxy)phenyl)-1-(4-fluorophenyl)-6-cyclopropyl-2-oxo-1,2-dihydropyridine-3-carboxamide]

IC50 (BaF3, Table 7-2, separate test): 1.6 nM
Structure (SMILES): CCOc1ccc(C(=O)Nc2ccc(Oc3cc4cnn(C)c4cc3-c3cn[nH]c3)c(F)c2)c(=O)n1-c1ccc(F)cc1 [Example 14, N-(3-fluoro-4-(1-methyl-6-(1H-pyrazol-4-yl)-1H-indazol-5-yloxy)phenyl)-1-(4-fluorophenyl)-6-ethoxy-2-oxo-12-dihydropyridine-3-carboxamide]

IC50 (BaF3, 72 h, Table 7, 72 hours): 1890 nM
Structure (SMILES): O=C(Nc1cnn2ccc(N3CCC[C@@H]3c3cc(F)ccc3F)nc12)N1CC[C@H](O)C1 [LOXO-101, Larotrectinib, reference compound]
